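Cells were grown in 96-well plates and exposed to each compound for 48 hours at five concentrations; endpoints were interpolated linearly between bracketing concentrations, or set to the highest concentration if not reached. GI50 = concentration required for 50% inhibition of growth.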 Active and inactive are the calls of the source. Rule as the data show it: active = GI50 up to about 1.1 µM and inactive = higher.

Some test systems named below: A549; BT-549; CAKI-1; HCT-116; HT-29; IGROV-1; K562; LOX IMVI; M14; MCF7; MDA-MB-435; NCI/ADR-RES; OVCAR-3; OVCAR-5; PC-3; SK-MEL-2; SNB-19; EKVX; MOLT-4; NCI-H226.
What all share (assay): inhibition of tumour cell growth, NCI panel, 48 h

In the case of `Cl/C(=N\c1cccc2ccccc12)N(c1ccccc1)c1ccccc1`, the GI50 with A549 was 56.5 µM (inactive); in the assay on BT-549 it was > 100 µM (inactive); in the assay with CAKI-1, > 100 µM (inactive); in the assay on HCT-116 it was 73.5 µM (inactive); in the assay with HT-29, 52.7 µM (inactive); in the assay on IGROV-1, > 100 µM (inactive). Besides, the GI50 in the assay on K562 is 31.8 µM (inactive); in the assay with LOX IMVI it was > 100 µM (inactive); with M14 it was 43 µM (inactive); in the assay with MCF7 it was 35.2 µM (inactive); with MDA-MB-435 it was > 100 µM (inactive); in the assay on NCI/ADR-RES, > 100 µM (inactive). The GI50 with OVCAR-3 was 60.1 µM (inactive); in the assay on OVCAR-5 it was > 100 µM (inactive); in the assay with PC-3, 44.6 µM (inactive); with SK-MEL-2, > 100 µM (inactive); in the assay on SNB-19 it was > 100 µM (inactive).
In the case of `CCCC(=O)OC(OC(=O)CCC)c1ccc([N+](=O)[O-])o1`, the GI50 is > 100 µM (inactive) in the assay with A549; 47.2 µM (inactive) in the assay on BT-549; 17.7 µM (inactive) in the assay on CAKI-1; 26.1 µM (inactive) in the assay with EKVX; 16.9 µM (inactive) with HCT-116; 22.6 µM (inactive) in the assay with HT-29. Also, the GI50 with IGROV-1 was 14.8 µM (inactive); in the assay on K562, 34 µM (inactive); in the assay with LOX IMVI it was 21.7 µM (inactive); with M14 it was 19.8 µM (inactive); in the assay with MCF7, 16.9 µM (inactive); in the assay on MDA-MB-435, 20.7 µM (inactive). The GI50 was 31.1 µM (inactive) in the assay on MOLT-4; 39.2 µM (inactive) in the assay with NCI/ADR-RES; 20.9 µM (inactive) with OVCAR-3; 21.8 µM (inactive) with OVCAR-5; 61.7 µM (inactive) with PC-3; 22.8 µM (inactive) in the assay with SK-MEL-2. The GI50 with SNB-19 was > 100 µM (inactive).
As to `c1ccc(/C(=N/Nc2ccncn2)c2ccccn2)cc1`, the GI50 is 30.4 µM (inactive) in the assay on A549; 35.1 µM (inactive) with BT-549; 15.5 µM (inactive) in the assay with CAKI-1; 4.34 µM (inactive) with EKVX; 14.3 µM (inactive) with HCT-116; 0.883 µM (active) in the assay on HT-29. Also, the GI50 is 17 µM (inactive) in the assay with IGROV-1; 0.528 µM (active) with K562; 10.3 µM (inactive) in the assay on M14; 8.51 µM (inactive) with MCF7; 48.6 µM (inactive) in the assay on MDA-MB-435; 3.47 µM (inactive) in the assay on MOLT-4. Further, the GI50 in the assay on NCI-H226 is 15.8 µM (inactive); with NCI/ADR-RES it was 18.4 µM (inactive); in the assay on OVCAR-3 it was 6.78 µM (inactive); with OVCAR-5 it was 34.5 µM (inactive); with PC-3, 36.5 µM (inactive); in the assay with SK-MEL-2, 44.8 µM (inactive). Besides, the GI50 in the assay on SNB-19 is 46.8 µM (inactive).
As to `O=[N+]([O-])C(/C=C(\Cl)[N+](=O)[O-])=C(Nc1ccccc1)Nc1ccccc1`, the GI50 is 17 µM (inactive) in the assay on A549; 7.24 µM (inactive) in the assay with BT-549; 13.7 µM (inactive) in the assay with CAKI-1; 13.5 µM (inactive) in the assay on EKVX; 1.98 µM (inactive) in the assay on HCT-116; 6.21 µM (inactive) with HT-29. The GI50 was 17.2 µM (inactive) with IGROV-1; 2.94 µM (inactive) with K562; 16 µM (inactive) with LOX IMVI; 9.84 µM (inactive) in the assay with M14; 0.843 µM (active) in the assay on MCF7; 5 µM (inactive) with MDA-MB-435. The GI50 is 1.75 µM (inactive) in the assay with MOLT-4; 7.93 µM (inactive) in the assay on NCI/ADR-RES; 5.19 µM (inactive) in the assay with OVCAR-3; 5.36 µM (inactive) in the assay on OVCAR-5; 14.6 µM (inactive) in the assay on PC-3; 16.4 µM (inactive) in the assay with SK-MEL-2. The GI50 with SNB-19 was 17.5 µM (inactive).
As to `COc1ccc(C[n+]2cccc(O)c2)cc1`, the GI50 in the assay with A549, in the assay on BT-549, in the assay on EKVX, in the assay on HCT-116, with HT-29 and in the assay with IGROV-1 was > 100 µM (inactive) throughout. For the same compound, the GI50 with K562, in the assay on M14, with MCF7, with MDA-MB-435, in the assay with MOLT-4 and in the assay with NCI-H226 was > 100 µM (inactive) throughout. Besides, the GI50 in the assay with NCI/ADR-RES, with OVCAR-3, in the assay with OVCAR-5, in the assay on PC-3, in the assay on SK-MEL-2 and in the assay on SNB-19 was > 100 µM (inactive) throughout.
With `CCOC(=O)C1=COC(C)(CCc2ccccc2)CC1=O` (stereo unspecified), the GI50 with A549 was 40.9 µM (inactive); with BT-549, 71.4 µM (inactive); in the assay on CAKI-1, > 100 µM (inactive); in the assay on EKVX, > 100 µM (inactive); with HCT-116 it was 67.9 µM (inactive); in the assay with HT-29, 56.2 µM (inactive). Moreover, the GI50 with K562 was 40.3 µM (inactive); in the assay with M14, > 100 µM (inactive); in the assay with MCF7, 44 µM (inactive); in the assay with MDA-MB-435 it was 51.8 µM (inactive); with MOLT-4, 43.2 µM (inactive); in the assay with NCI/ADR-RES, > 100 µM (inactive). In addition, the GI50 is 80.2 µM (inactive) in the assay with OVCAR-3; > 100 µM (inactive) in the assay on OVCAR-5; 89.1 µM (inactive) in the assay on PC-3; > 100 µM (inactive) in the assay with SK-MEL-2; 56.2 µM (inactive) in the assay with SNB-19.
Take `CNC(=O)C(C)C1C(=O)/C(=C(O)/C=C\C(C)=C\C(C)C2OC3(C)OC(C=CC34CO4)C2C)C(=O)N1C1CCC(O)C(C)O1` (stereo unspecified): the GI50 with A549, in the assay on BT-549, with CAKI-1, in the assay on EKVX, in the assay on HCT-116 and with HT-29 was > 100 µM (inactive) in each case. The GI50 with IGROV-1, in the assay with K562, with M14, in the assay with MCF7, in the assay on MDA-MB-435 and in the assay on MOLT-4 was > 100 µM (inactive) throughout. Besides, the GI50 in the assay with NCI/ADR-RES, in the assay on OVCAR-3, in the assay with OVCAR-5, with PC-3, in the assay with SK-MEL-2 and in the assay on SNB-19 was > 100 µM (inactive) throughout.
As to `C/C=C(/CBr)CCC(Br)C(C)(C)Cl.C/C=C(\CBr)CCC(Br)C(C)(C)Cl` (stereo unspecified), the GI50 in the assay on A549, in the assay on BT-549, with CAKI-1, in the assay with EKVX, in the assay on HCT-116 and with HT-29 was > 10 µM (inactive) each time. Moreover, the GI50 in the assay on IGROV-1, with K562, in the assay on M14, in the assay on MCF7, with MDA-MB-435 and in the assay with MOLT-4 was > 10 µM (inactive) each time. Besides, the GI50 in the assay with NCI-H226, in the assay with NCI/ADR-RES, with OVCAR-3, in the assay with OVCAR-5, with PC-3 and with SK-MEL-2 was > 10 µM (inactive) in each case. Also, the GI50 in the assay on SNB-19 was > 10 µM (inactive).
Take `Clc1ccc(OCc2nnc(CCCCCCCCc3nnc(COc4ccc(Cl)cc4Cl)o3)o2)c(Cl)c1`: the GI50 in the assay on A549 is 49.2 µM (inactive); in the assay with BT-549, > 100 µM (inactive); with CAKI-1, 24.6 µM (inactive); in the assay on EKVX, > 100 µM (inactive); with HCT-116, 15.7 µM (inactive); in the assay with HT-29, > 100 µM (inactive). Besides, the GI50 in the assay with IGROV-1 is 9.4 µM (inactive); in the assay with K562, 18.2 µM (inactive); in the assay on M14 it was > 100 µM (inactive); in the assay with MCF7 it was 42.3 µM (inactive); in the assay with MDA-MB-435 it was > 100 µM (inactive); with MOLT-4 it was 14.3 µM (inactive). Moreover, the GI50 in the assay with NCI-H226 was > 100 µM (inactive); with NCI/ADR-RES, 76.6 µM (inactive); in the assay on OVCAR-5, > 100 µM (inactive); in the assay with PC-3 it was 60.3 µM (inactive); in the assay on SK-MEL-2, > 100 µM (inactive); in the assay with SNB-19, 69.3 µM (inactive).
As to `COc1c(C)c(C/C=C(\C)CC/C=C(\C)CC/C=C(\C)CC/C=C(\C)CCC=C(C)C)c(OC)c(OC)c1OC`, the GI50 in the assay with A549 was 17.6 µM (inactive); in the assay with BT-549 it was 85.1 µM (inactive); with CAKI-1, 81.3 µM (inactive); in the assay on EKVX, 44.4 µM (inactive); with HCT-116 it was 58.3 µM (inactive); in the assay with HT-29, 88.3 µM (inactive). Besides, the GI50 with IGROV-1 is 26.9 µM (inactive); with K562, 24.4 µM (inactive); with LOX IMVI, 17.1 µM (inactive); in the assay with M14, 50.9 µM (inactive); in the assay on MCF7, 51.1 µM (inactive); in the assay on MDA-MB-435, 31.1 µM (inactive). Besides, the GI50 with MOLT-4 is 40.6 µM (inactive); in the assay on NCI/ADR-RES it was 25 µM (inactive); with OVCAR-3, > 100 µM (inactive); in the assay with OVCAR-5, > 100 µM (inactive); with PC-3, 52.8 µM (inactive); with SK-MEL-2, > 100 µM (inactive). Moreover, the GI50 in the assay with SNB-19 was > 100 µM (inactive).
As for `COC(=O)C1Cc2c(OC)ccc(OC)c2CC(C(=O)OC)C1=O` (stereo unspecified), the GI50 in the assay with A549, with BT-549, with CAKI-1, in the assay with EKVX, with HCT-116 and in the assay on HT-29 was > 100 µM (inactive) in each case. Moreover, the GI50 with IGROV-1, with K562, in the assay on M14, with MCF7, in the assay on MDA-MB-435 and in the assay with MOLT-4 was > 100 µM (inactive) each time. Moreover, the GI50 in the assay on NCI-H226, with NCI/ADR-RES, with OVCAR-3, in the assay on OVCAR-5, with PC-3 and in the assay with SNB-19 was > 100 µM (inactive) in each case.

Values taken from ChEMBL document CHEMBL1201862, “PubChem BioAssay data set” (2004).
